# Measured values reported in US20250230193A1, “CYCLIC COMPOUND HAVING SELECTIVE KRAS INHIBITORY EFFECT ON HRAS AND NRAS” (CHUGAI SEIYAKU KABUSHIKI KAISHA, priority 2022, published 2025).
# Where a SMILES comes first, the peptide text is derived from it. Bridges are numbered along the chain shown (N, C = ends). [ ]: non-standard residue; d: D form. The star is where a group is joined. hPhe(3-Cl-4-CF3) = N[C@@H](CCc1ccc(C(F)(F)F)c(Cl)c1)C(=O)O; NPrPhe(4-CF3) = CCCN[C@@H](Cc1ccc(C(F)(F)F)cc1)C(=O)O; Pro(4-spirocPr) = O=C(O)[C@@H]1CC2(CC2)CN1; Abu(4,4,4-F3) = N[C@@H](CC(F)(F)F)C(=O)O; Morpholine(3S-CO) = O=C(O)[C@@H]1COCCN1; Pip(4,4-F2) = O=C(O)[C@@H]1CC(F)(F)CCN1; NMeGly(cPent) = CN[C@H](C(=O)O)C1CCCC1; Gly(cPent) = N[C@H](C(=O)O)C1CCCC1; Hyp = O=C(O)[C@@H]1C[C@@H](O)CN1; Gly(cBu) = N[C@H](C(=O)O)C1CCC1; NMeD = CN[C@@H](CC(=O)O)C(=O)O; NMeL = CN[C@@H](CC(C)C)C(=O)O; Pip = O=C(O)[C@@H]1CCCCN1; Morpholide = C1CN(*)CCO1; NMeA = CN[C@@H](C)C(=O)O; Ac5c = NC1(C(=O)O)CCCC1; Aze = O=C(O)[C@@H]1CCN1; Abu = CC[C@H](N)C(=O)O; NPrGly = CCCNCC(=O)O; NEtG = CCNCC(=O)O; Sar = CNCC(=O)O
# Legend:
# [1] = molecular target: GDP-bound HRAS wild-type protein (Homo sapiens, UniProt P01112); test: Binding to HRAS by surface plasmon resonance (SPR), Single Cycle Kinetics; conditions: KD ratio HRAS/KRAS, SPR
# GDP-bound HRAS wild-type protein, sequence (P01112 whole entry): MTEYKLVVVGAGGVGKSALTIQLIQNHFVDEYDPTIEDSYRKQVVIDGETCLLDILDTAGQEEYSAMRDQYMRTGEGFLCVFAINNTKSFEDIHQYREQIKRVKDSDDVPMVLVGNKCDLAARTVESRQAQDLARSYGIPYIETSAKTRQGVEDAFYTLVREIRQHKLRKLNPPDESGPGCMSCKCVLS
# [2] = molecular target: GDP-bound NRAS wild-type protein (Homo sapiens, UniProt P01111); test: Binding to NRAS by surface plasmon resonance (SPR), Single Cycle Kinetics; conditions: KD ratio NRAS/KRAS, SPR
# GDP-bound NRAS wild-type protein, sequence (P01111 whole entry): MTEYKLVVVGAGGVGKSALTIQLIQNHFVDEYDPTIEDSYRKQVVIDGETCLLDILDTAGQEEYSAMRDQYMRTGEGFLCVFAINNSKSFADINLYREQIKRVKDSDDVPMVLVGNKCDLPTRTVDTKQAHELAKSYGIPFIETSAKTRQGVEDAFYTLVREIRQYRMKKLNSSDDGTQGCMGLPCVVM
SMILES,HRAS/KRAS (ratio of KD for GDP-bound HRAS wild-type to KD for KRAS) [1],NRAS/KRAS (ratio of KD for GDP-bound NRAS wild-type to KD for KRAS) [2]
CCCN1C(=O)[C@@H]2CCN2C(=O)CN(CC)C(=O)[C@H]([C@@H](C)CC)NC(=O)[C@H](CC(C)C)N(C)C(=O)C[C@@H](C(=O)N2CCOCC2)N(C)C(=O)[C@H](C2CCCC2)N(C)C(=O)C2(CCCC2)NC(=O)[C@@H]2CCCN2C(=O)[C@H](CCc2ccc(C(F)(F)F)c(Cl)c2)NC(=O)CN(C)C(=O)[C@@H]1Cc1ccc(C(F)(F)F)cc1 [PP0259] ([NMeL]I[NEtG][Aze][NPrPhe(4-CF3)][Sar][hPhe(3-Cl-4-CF3)]P[Ac5c][NMeGly(cPent)][NMeD]-Morpholide; lactam N-11),B (a compound having 3 or more and less than 10 is denoted as B),C (A compound having a KD ratio of 0.1 or more and less than 3 is denoted as C)
CCCN1C(=O)CN(C)C(=O)CN(C)C(=O)[C@H]([C@@H](C)CC)NC(=O)[C@H](CC(C)C)N(C)C(=O)C[C@@H](C(=O)N2CCOCC2)N(C)C(=O)[C@H](C2CCCC2)N(C)C(=O)C2(CCCC2)NC(=O)[C@@H]2CCN2C(=O)[C@H](CCc2ccc(C(F)(F)F)c(Cl)c2)NC(=O)CN(C)C(=O)[C@@H]1Cc1ccc(C(F)(F)F)cc1 [PP0260] ([NMeL]I[Sar][Sar][NPrPhe(4-CF3)][Sar][hPhe(3-Cl-4-CF3)][Aze][Ac5c][NMeGly(cPent)][NMeD]-Morpholide; lactam N-11),C (A compound having a KD ratio of 0.1 or more and less than 3 is denoted as C),B (a compound having 3 or more and less than 10 is denoted as B)
CCCN1C(=O)CN(C)C(=O)CN(C)C(=O)[C@H]([C@@H](C)CC)NC(=O)[C@H](CC(C)C)N(C)C(=O)C[C@@H](C(=O)N2CCOCC2)N(C)C(=O)[C@H](C2CCCC2)N(C)C(=O)C2(CCCC2)NC(=O)[C@@H]2CC3(CC3)CN2C(=O)[C@H](CCc2ccc(C(F)(F)F)c(Cl)c2)NC(=O)CN(C)C(=O)[C@@H]1Cc1ccc(C(F)(F)F)cc1 [PP0261] ([NMeL]I[Sar][Sar][NPrPhe(4-CF3)][Sar][hPhe(3-Cl-4-CF3)][Pro(4-spirocPr)][Ac5c][NMeGly(cPent)][NMeD]-Morpholide; lactam N-11),C (A compound having a KD ratio of 0.1 or more and less than 3 is denoted as C),B (a compound having 3 or more and less than 10 is denoted as B)
CCCN1C(=O)CN(C)C(=O)CN(C)C(=O)[C@H]([C@@H](C)CC)NC(=O)[C@H](CC(C)C)N(C)C(=O)C[C@@H](C(=O)N2CCOCC2)N(C)C(=O)[C@H](C2CCCC2)N(C)C(=O)C2(CCCC2)NC(=O)[C@@H]2C[C@@H](OC)CN2C(=O)[C@H](CCc2ccc(C(F)(F)F)c(Cl)c2)NC(=O)CN(C)C(=O)[C@@H]1Cc1ccc(C(F)(F)F)cc1 [PP0262] ([NMeL]I[Sar][Sar][NPrPhe(4-CF3)][Sar][hPhe(3-Cl-4-CF3)][Hyp](Me)[Ac5c][NMeGly(cPent)][NMeD]-Morpholide; lactam N-11),B (a compound having 3 or more and less than 10 is denoted as B),B (a compound having 3 or more and less than 10 is denoted as B)
CCCN1C(=O)CN(C)C(=O)CN(C)C(=O)[C@H]([C@@H](C)CC)NC(=O)[C@H](CC(C)C)N(C)C(=O)C[C@@H](C(=O)N2CCOCC2)N(C)C(=O)[C@H](C2CCCC2)N(C)C(=O)C2(CCCC2)NC(=O)[C@@H]2CCCCN2C(=O)[C@H](CCc2ccc(C(F)(F)F)c(Cl)c2)NC(=O)CN(C)C(=O)[C@@H]1Cc1ccc(C(F)(F)F)cc1 [PP0263] ([NMeL]I[Sar][Sar][NPrPhe(4-CF3)][Sar][hPhe(3-Cl-4-CF3)][Pip][Ac5c][NMeGly(cPent)][NMeD]-Morpholide; lactam N-11),C (A compound having a KD ratio of 0.1 or more and less than 3 is denoted as C),B (a compound having 3 or more and less than 10 is denoted as B)
"CCCN1C(=O)CN(C)C(=O)CN(C)C(=O)[C@H]([C@@H](C)CC)NC(=O)[C@H](CC(C)C)N(C)C(=O)C[C@@H](C(=O)N2CCOCC2)N(C)C(=O)[C@H](C2CCCC2)N(C)C(=O)C2(CCCC2)NC(=O)[C@@H]2CC(F)(F)CCN2C(=O)[C@H](CCc2ccc(C(F)(F)F)c(Cl)c2)NC(=O)CN(C)C(=O)[C@@H]1Cc1ccc(C(F)(F)F)cc1 [PP0264] ([NMeL]I[Sar][Sar][NPrPhe(4-CF3)][Sar][hPhe(3-Cl-4-CF3)][Pip(4,4-F2)][Ac5c][NMeGly(cPent)][NMeD]-Morpholide; lactam N-11)",C (A compound having a KD ratio of 0.1 or more and less than 3 is denoted as C),B (a compound having 3 or more and less than 10 is denoted as B)
CCCN1C(=O)CN(C)C(=O)CN(C)C(=O)[C@H]([C@@H](C)CC)NC(=O)[C@H](CC(C)C)N(C)C(=O)C[C@@H](C(=O)N2CCOCC2)N(C)C(=O)[C@H](C2CCCC2)N(C)C(=O)C2(CCCC2)NC(=O)[C@@H]2COCCN2C(=O)[C@H](CCc2ccc(C(F)(F)F)c(Cl)c2)NC(=O)CN(C)C(=O)[C@@H]1Cc1ccc(C(F)(F)F)cc1 [PP0265] ([NMeL]I[Sar][Sar][NPrPhe(4-CF3)][Sar][hPhe(3-Cl-4-CF3)][Morpholine(3S-CO)][Ac5c][NMeGly(cPent)][NMeD]-Morpholide; lactam N-11),C (A compound having a KD ratio of 0.1 or more and less than 3 is denoted as C),B (a compound having 3 or more and less than 10 is denoted as B)
CCCN1C(=O)CN(C)C(=O)CN(C)C(=O)[C@H]([C@@H](C)CC)NC(=O)[C@H](CC(C)C)N(C)C(=O)C[C@@H](C(=O)N2CCOCC2)N(C)C(=O)[C@H](C2CCCC2)N(C)C(=O)C2(CCCC2)NC(=O)CN(C)C(=O)[C@H](CCc2ccc(C(F)(F)F)c(Cl)c2)NC(=O)CN(C)C(=O)[C@@H]1Cc1ccc(C(F)(F)F)cc1 [PP0266] ([NMeL]I[Sar][Sar][NPrPhe(4-CF3)][Sar][hPhe(3-Cl-4-CF3)][Sar][Ac5c][NMeGly(cPent)][NMeD]-Morpholide; lactam N-11),C (A compound having a KD ratio of 0.1 or more and less than 3 is denoted as C),B (a compound having 3 or more and less than 10 is denoted as B)
CCCN1CC(=O)NC2(CCCC2)C(=O)N(C)[C@@H](C2CCCC2)C(=O)N(C)[C@H](C(=O)N2CCOCC2)CC(=O)N(C)[C@@H](CC(C)C)C(=O)N[C@@H]([C@@H](C)CC)C(=O)N(C)CC(=O)N(C)CC(=O)N(CCC)[C@@H](Cc2ccc(C(F)(F)F)cc2)C(=O)N(C)CC(=O)N[C@@H](CCc2ccc(C(F)(F)F)c(Cl)c2)C1=O [PP0267] ([NMeL]I[Sar][Sar][NPrPhe(4-CF3)][Sar][hPhe(3-Cl-4-CF3)][NPrGly][Ac5c][NMeGly(cPent)][NMeD]-Morpholide; lactam N-11),B (a compound having 3 or more and less than 10 is denoted as B),B (a compound having 3 or more and less than 10 is denoted as B)
CCCN1C(=O)[C@@H]2CCN2C(=O)[C@H](C)N(C)C(=O)[C@H](CC)NC(=O)[C@H](CC(C)C)N(C)C(=O)C[C@@H](C(=O)N2CCOCC2)N(C)C(=O)[C@H](C2CCCC2)N(C)C(=O)C2(CCCC2)NC(=O)[C@@H]2CCCN2C(=O)[C@H](CCc2ccc(C(F)(F)F)c(Cl)c2)NC(=O)CN(C)C(=O)[C@@H]1Cc1ccc(C(F)(F)F)cc1 [PP0269] ([NMeL][Abu][NMeA][Aze][NPrPhe(4-CF3)][Sar][hPhe(3-Cl-4-CF3)]P[Ac5c][NMeGly(cPent)][NMeD]-Morpholide; lactam N-11),B (a compound having 3 or more and less than 10 is denoted as B),C (A compound having a KD ratio of 0.1 or more and less than 3 is denoted as C)
"CCCN1C(=O)[C@@H]2CCN2C(=O)[C@H](C)N(C)C(=O)[C@H](CC(F)(F)F)NC(=O)[C@H](CC(C)C)N(C)C(=O)C[C@@H](C(=O)N2CCOCC2)N(C)C(=O)[C@H](C2CCCC2)N(C)C(=O)C2(CCCC2)NC(=O)[C@@H]2CCCN2C(=O)[C@H](CCc2ccc(C(F)(F)F)c(Cl)c2)NC(=O)CN(C)C(=O)[C@@H]1Cc1ccc(C(F)(F)F)cc1 [PP0270] ([NMeL][Abu(4,4,4-F3)][NMeA][Aze][NPrPhe(4-CF3)][Sar][hPhe(3-Cl-4-CF3)]P[Ac5c][NMeGly(cPent)][NMeD]-Morpholide; lactam N-11)",B (a compound having 3 or more and less than 10 is denoted as B),C (A compound having a KD ratio of 0.1 or more and less than 3 is denoted as C)
CCCN1C(=O)[C@@H]2CCN2C(=O)[C@H](C)N(C)C(=O)[C@H](C2CCC2)NC(=O)[C@H](CC(C)C)N(C)C(=O)C[C@@H](C(=O)N2CCOCC2)N(C)C(=O)[C@H](C2CCCC2)N(C)C(=O)C2(CCCC2)NC(=O)[C@@H]2CCCN2C(=O)[C@H](CCc2ccc(C(F)(F)F)c(Cl)c2)NC(=O)CN(C)C(=O)[C@@H]1Cc1ccc(C(F)(F)F)cc1 [PP0271] ([NMeL][Gly(cBu)][NMeA][Aze][NPrPhe(4-CF3)][Sar][hPhe(3-Cl-4-CF3)]P[Ac5c][NMeGly(cPent)][NMeD]-Morpholide; lactam N-11),B (a compound having 3 or more and less than 10 is denoted as B),C (A compound having a KD ratio of 0.1 or more and less than 3 is denoted as C)
CCCN1C(=O)[C@@H]2CCN2C(=O)[C@H](C)N(C)C(=O)[C@H](C2CCCC2)NC(=O)[C@H](CC(C)C)N(C)C(=O)C[C@@H](C(=O)N2CCOCC2)N(C)C(=O)[C@H](C2CCCC2)N(C)C(=O)C2(CCCC2)NC(=O)[C@@H]2CCCN2C(=O)[C@H](CCc2ccc(C(F)(F)F)c(Cl)c2)NC(=O)CN(C)C(=O)[C@@H]1Cc1ccc(C(F)(F)F)cc1 [PP0272] ([NMeL][Gly(cPent)][NMeA][Aze][NPrPhe(4-CF3)][Sar][hPhe(3-Cl-4-CF3)]P[Ac5c][NMeGly(cPent)][NMeD]-Morpholide; lactam N-11),B (a compound having 3 or more and less than 10 is denoted as B),C (A compound having a KD ratio of 0.1 or more and less than 3 is denoted as C)
